Data set [1] relates to CMV AD169^IE2-YFP. Put plainly: Anti-CMV activity (IC50) of NAPA compounds, AD169 IE2-YFP reporter virus high-content assay in fibroblasts. In kind it is cell-based, Human cytomegalovirus. As for the experimental part:
To identify CMV inhibitors, a high-content screening (HCS) early-stage-specific reporter assay using a CMV AD169 yellow-fluorescent protein (YFP) expressing virus (AD169^IE2-YFP) (Gardner et al., Antiviral Res., 113:49-61 (2015)) was developed to screen >112,000 compounds to identify potent inhibitors (IC50<10 μM) of cytomegalovirus having a minimal mammalian cytotoxicity (CC50) of preferably ≥100 μM. As a result, we have identified, isolated, and characterized a novel series of N-arylpyrimidinamines (NAPAs) that inhibit CMV infection. […] Further, the NAPA compounds are broadly effective at inhibiting virus infection of diverse strains and cell types.
The CMV IE1 and IE2 gene products are translated within 3-6 hours post infection (hpi) and function to stimulate viral promoters to initiate transcription of early and late viral genes (Cherrington et al., J. Virol., 63:1435-40 (1989); Meier et al., J. Virol., 71:1246-1255 (1997)). The CMV AD169 variant that expresses a viral protein chimera consisting of IE2-YFP (AD1691E2/YFP) was utilized to quantify virus infection in a high-throughput screen by a robust fluorescent signal localized exclusively to the nucleus (8-24 hpi) (Gardner et al., supra (2015); Cohen et al., Viruses, 8 (10): 295 (2016); Cohen et al., J. Virol., 90:10715-10727 (2016)). Using the AD1691E2-YFP reporter virus assay, a collection of the compound libraries (>112,000 compounds) was screened for inhibitors of the early stages of CMV replication using a confocal fluorescence microscopic plate reader (BioTek Cytation3). Infection was calculated as a percentage of nuclei containing YFP and cycloheximide (8 μM) was used as a positive control. The Z′ factor for the optimized assay was >0.5 which was sufficient to initiate screening.
We evaluated 300 primary hits using an assay funnel designed to prioritize compounds based on antiviral activity, specificity, and drug-like properties. This identified two candidates for hit-to-lead optimization that were not Pan Assay Interference compounds (PAINS) (Baell et al., J. Med. Chem., 53:2719-40 (2010); Capuzzi et al., J. Chem. Inf. Model 57:417-427 (2017); Dahlin et al., Assay Drug Dev. Technol., 14:168-174 (2016)). […] The NAPA series was chosen as the primary hit-to-lead series due to its synthetic accessibility and the >2-log range in potency observed in the preliminary SAR that provides a clear pathway to improving antiviral activity and drug-like properties.

The test system of data set [2] is HCMV GDGr K17 (GCV^R). Put plainly: Herpes virus panel neutralization, GCV-resistant HCMV. In kind it is cell-based, Human cytomegalovirus. The method, then: To determine the specificity of MBX-4992, additional neutralization experiments were conducted using a panel of herpes viruses performed in the presence of MBX-4992. […] Collectively, the antiviral activity of MBX-4992 is equivalent to that of GCV indicating specific inhibition of CMV replication.

Data set [3] deals with AD169^R. Kind of data set: Generation of infectious virions (supernatant infectious dose). In kind it is cell-based, Human cytomegalovirus. The note with it: MRC5 fibroblasts and ARPE-19 cells, MOI 0.5, 1-20 μM for 5 days. As for the experimental part: FIGS. 13A and B are graphs showing that MBX-4992 limits the generation of infectious virions in fibroblasts and epithelial cells. MRC5 and ARPE-19 cells infected with AD169^R (MOI 0.5) were treated with DMSO, MBX-4992 (1, 5, 10, and 20 μM), and ganciclovir (5 μM) for 5 days, washed, and replaced with media for 3 days. The supernatant of MRC5 treated-cells (A) and ARPE-19-treated (B) cells was used to infect MRC5 cells. Virus infection was analyzed 24 hpi using GFP fluorescent signal as the readout with a Celigo cytometer. The viral infectious dose (IU/ml) was determined from each condition. The error bars are based on differences of infectious dose from 5 samples. Statistical tests were performed using ordinary one-way ANOVA with multiple comparisons to DMSO treated cells as a control and a Dunnett's post-test ****, p<0.0001.

Data set [4] deals with NHDF cells. Kind of data set: CellTiter Glo ATP luciferase assay. In kind it is cell-based, human. The conditions noted are these: human, 6 days. The method, then:
Fibroblasts were treated with increasing concentrations of MBX-4992 and MBXC-4336 for up to 6 days and cell number was measured periodically using Hoechst stain to quantify cell proliferation (A and B). Cyclohexamide (CHX) and DMSO (−) were used as positive and negative controls for cytotoxicity respectively. Cell cytostaticity (C and D) was assessed using ATP-based CellTiter Glo luciferase assay following extended incubation with increasing concentrations of MBX-4992 and MBXC-4336 for 1 or 6 days. Relative light units (RLU) were measured following cell lysis and normalized to DMSO treated cells for each time point.
The CellTiter Glo Luminescent Assay (Promega Inc, Madison, WI) was performed according to the manufacturer's instruction. NHDF cells (10^4) were plated in a 96-well plate overnight and treated with MBX-4992 or MXC-4336 ([…]) in triplicate for up to 6 days. Cyclohexamide (50 μg/mL) was used as a control. CellTiter Glo substrate was added in a 1:1 ratio with media and CellTiter-Glo reagent followed by the analysis of luciferase activity (relative light units, RLU) using a BioTek Synergy H1 microplate reader. In parallel, an identical plate was labelled with Hoescht reagent (25 μg/mL) to quantify the cell number using a Celigo Cytometer.
Next, the cytostaticity and cytotoxicity of treatment with MBX-4992 and MBXC-4336 was analyzed. […]

pIC50: −log10 of the molar value.

Broadly, the pIC50 is the IC50 on a negative log10 scale, so that one unit is a factor of ten. Read a low pIC50 as a large IC50. As to `Cc1nc(Nc2ccc(NC(=O)c3ccco3)cc2)cc(N2CCCC2)n1` [MBX-4992], the “selectivity index (SI)” value in data set [1] (CC50/IC50) is more than 50. Moreover, the pIC50 in data set [1] (Human betaherpesvirus 5, AD169, Fibroblast) is 5.76; in data set [2] (Human betaherpesvirus 5) it was 5.74. This compound also displayed an SI in data set [2] (HCMV GDGr K17 (GCV^R)) of more than 83. Further, the “generation of infectious virions” value in data set [3] is listed as “significantly decreased generation of infectious AD169^R virions”.
In the case of `Cc1nc(Nc2cccc(NC(=O)c3ccco3)c2)cc(N2CCCCC2)n1` [MBXC-4336], the “decrease of luciferase activity” value in data set [4] was 10%.
